Source: patent US20230107983A1, “COMPOUND ISOLATED FROM TORILIDIS FRUCTUS, AND ANTICANCER PHARMACEUTICAL COMPOSITION CONTAINING SAME AS ACTIVE INGREDIENT” (PHARMA-GENE CO., LTD., priority 2020, published 2023)

Columns and labels:
[1] = tested on: Human fibroblast; experiment: WST-1 assay, cell viability of fibroblasts (normal cells); assay type: cell-based; settings: 10-100 µg/Mℓ, 24 hours, FIG. 9
Description: (§1) The cytotoxicity of the Tr-9 compound to six cancer cell lines was confirmed. Lung cancer(A549), gastric cancer(AGS), liver cancer(Hep3B)), breast cancer(MDA-MB-231), colorectal cancer(HCT116) and pancreatic cancer(BxPC-3) cell lines and fibroblasts were aliquoted in a 96-well plate in an amount of 5×10^3 cells/well, and the novel compound Tr-9 was treated thereto at a concentration of 10, 20, 40, 60, 80, 100 µg/Mℓ for 24 hours, respectively. Lung cancer cell line was further treated at a concentration of 100 µg/Mℓ for 24 hours, 48 hours and 72 hours.
(§2) Then, the amount of living cells was measured using WST(high sensitive Water Soluble Tetrazolium salt). WST reacts with dehydrogenase in living cells and produces orange-colored watersoluble formazan. Since dehydrogenase that reacts with WST is an enzyme present in the mitochondrial electron transport chain of metabolically active cells and is effective only in living cells, the production of formazan is proportional to the number of living cells. Therefore, the absorbance at 450 nm was measured to confirm the cell viability through the formation of formazan.

[2] = tested on: human lung cancer cells (A549); experiment: Nude mouse xenograft model of human lung cancer cells, intraperitoneal administration; assay type: in vivo; settings: for tumor size compared to the control group: after day 19
Description: Anticancer activity against lung cancer according to the intraperitoneal administration of Tr-9 was confirmed through a nude mouse xenograft model of human lung cancer cells (A549). In Example 4, it was carried out using the same animal model and method as the oral administration, except that it was administered intraperitoneally.
Specific pathogen-free (SPF) nude mice of the BALB/C strain were used as the animal model. Animals were bred in the animal room of Daedeok Campus of Hannam University maintained at a temperature of 23±3° C., relative humidity of 55±15%, ventilation frequency of 10-20 times/hr, lighting time of 12 hours(lights on at 8 am and off at 8 pm) and illuminance of 150 to 300 Lux.
For cancer cell transplantation, all cells were collected and counted on the last day of culture, and the concentration of human lung cancer cell line A549 was adjusted to 5×10^6 cells/ml using PBS. The adjusted cell culture solution was injected subcutaneously into the auxiliary region between the right scapula and chest wall at 0.2 ml (1×10^6 cells/mouse) per mouse.
The Tr-9 was dissolved in sterile PBS and 1 mM Tr-9 200 µℓ was intraperitoneally administered per mouse once a day, and all animals were weighed immediately before the start of drug (Tr-9) administration and 10 times in total from day 2 to day 23 after cancer cell transplantation (Table 4).
(§3) In Table 4 above, data values are the mean ± standard deviation. After measuring the body weight, the animals were killed using CO2 gas, and the tumor was separated and the size was measured in 3 directions using a vernier caliper for each animal. Then, the change in tumor size was expressed as a calculated value of (length × width × height)/2 (Table 4).
Tumor size increase is (Δt)= Vt—Vo, wherein Vt is the value of measuring the tumor size by date, and Vo is the value of measuring the initial tumor size.

[3] = tested on: liver cancer(Hep3B) cell line; experiment: WST-1 assay, cell viability of liver cancer cell line; assay type: cell-based; settings: 10-100 µg/Mℓ, 24 hours, FIG. 6
Description: as §1, §2

[4] = tested on: colorectal cancer(HCT116) cell line; experiment: WST-1 assay, cell viability of colorectal cancer cell line; assay type: cell-based, human; settings: 10-100 µg/Mℓ, 24 hours, FIG. 7
Description: as §1, §2

[5] = Change in mouse weight, HCT116 xenograft, intraperitoneal administration; assay type: in vivo, nude mouse; set-up: Change in mouse weight: unit not given here; settings: intraperitoneal once a day; for difference in body weight according to the administration of the drugs: day 2 to day 21
Description: The Tr-9 was dissolved in sterile PBS and 1 mM Tr-9 200 µℓ was intraperitoneally administered per mouse once a day, and all animals were weighed immediately before the start of drug (Tr-9) administration and 9 times in total from day 2 to day 21 after cancer cell transplantation (Table 7).
as §3, with “7” for “4”, “8).” for “4).”

[6] = tested on: breast cancer(MDA-MB-231) cell line; experiment: WST-1 assay, cell viability of breast cancer cell line; assay type: cell-based; settings: 10-100 µg/Mℓ, 24 hours, FIG. 5
Description: as §1, §2

[7] = tested on: pancreatic cancer(BxPC-3) cell line; experiment: WST-1 assay, cell viability of pancreatic cancer cell line; assay type: cell-based; settings: 10-100 µg/Mℓ, 24 hours, FIG. 8
Description: as §1, §2

[8] = tested on: Lung cancer(A549) cell line; experiment: WST-1 assay, cell viability of lung cancer cell line; assay type: cell-based, human; settings: 10-100 µg/Mℓ, 24 hours, FIG. 3
Description: as §1, §2

[9] = tested on: gastric cancer(AGS) cell line; experiment: WST-1 assay, cell viability of gastric cancer cell line; assay type: cell-based; settings: 10-100 µg/Mℓ, 24 hours, FIG. 4
Description: as §1, §2

[10] = intraperitoneal once a day, Day 0, table title: Change in tumor size
[11] = intraperitoneal once a day, Day 2, table title: Change in tumor size
[12] = intraperitoneal once a day, Day 2, vs control
[13] = intraperitoneal once a day, Day 5, table title: Change in tumor size
[14] = intraperitoneal once a day, Day 5, vs control
[15] = intraperitoneal once a day, Day 7, table title: Change in tumor size
[16] = intraperitoneal once a day, Day 7, vs control
[17] = intraperitoneal once a day, Day 9, table title: Change in tumor size
[18] = intraperitoneal once a day, Day 9, vs control
[19] = intraperitoneal once a day, Day 12, table title: Change in tumor size
[20] = intraperitoneal once a day, Day 12, vs control
[21] = intraperitoneal once a day, Day 14, table title: Change in tumor size
[22] = intraperitoneal once a day, Day 14, vs control
[23] = intraperitoneal once a day, Day 16, table title: Change in tumor size
[24] = intraperitoneal once a day, Day 16, vs control
[25] = intraperitoneal once a day, Day 19, table title: Change in tumor size
[26] = intraperitoneal once a day, Day 19, vs control
[27] = intraperitoneal once a day, Day 21, table title: Change in tumor size
[28] = intraperitoneal once a day, Day 21, vs control
[29] = intraperitoneal once a day, Day 23
[30] = intraperitoneal once a day, Day 23, table title: Change in tumor size
[31] = intraperitoneal once a day, Day 23, vs control

## CC(=O)OC(C)(C)C1CC2=C(C)C(=O)CC2C(C)CC1OC(=O)CC(C)C (centres unmarked) [Tr-9]
[1]
  cell viability of human fibroblast: little change in the cell viability
[2]; intraperitoneal
  tumor size further reduced compared to the group intraperitoneally administered with the torilin: about 17%
  tumor size compared to the control group: statistically significantly smaller
[2]; [10]
  Tumor size increase (Vt−V0): 0.0±0.0
[2]; [11]
  Tumor size increase (Vt−V0): 7.0±5.4
[2]; [12]
  Inhibition rate (tumor size increase): 48.5%
[2]; [13]
  Tumor size increase (Vt−V0): 13.8±8.5
[2]; [14]
  Inhibition rate (tumor size increase): 34.0%
[2]; [15]
  Tumor size increase (Vt−V0): 19.6±10.1
[2]; [16]
  Inhibition rate (tumor size increase): 42.2%
[2]; [17]
  Tumor size increase (Vt−V0): 24.4±7.1
[2]; [18]
  Inhibition rate (tumor size increase): 46.7%
[2]; [19]
  Tumor size increase (Vt−V0): 61.1±7.0
[2]; [20]
  Inhibition rate (tumor size increase): 30.5%
[2]; [21]
  Tumor size increase (Vt−V0): 116.4±15.1
[2]; [22]
  Inhibition rate (tumor size increase): 22.7%
[2]; [23]
  Tumor size increase (Vt−V0): 198.3±22.8
[2]; [24]
  Inhibition rate (tumor size increase): 24.6%
[2]; [25]
  Tumor size increase (Vt−V0): 309.2±39.5
[2]; [26]
  Inhibition rate (tumor size increase): 39.6%
[2]; [27]
  Tumor size increase (Vt−V0): 415.2±53.1
[2]; [28]
  Inhibition rate (tumor size increase): 38.9%
[2]; [29]
  Tumor weight at Day 23: 0.641 ± 0.1 g
[2]; [30]
  Tumor size increase (Vt−V0): 531.8±46.5
[2]; [31]
  Inhibition rate (tumor size increase): 44.2%
[3]
  cell viability: decreases the cell viability
[4]
  cell viability: decreases the cell viability
[5]; 0 Day after drug treatment
  Change in mouse weight: 100.0 ±0.0
[5]; 2 Days after drug treatment
  Change in mouse weight: 99.7 ±1.7
[5]; 5 Days after drug treatment
  Change in mouse weight: 100.5 ±3.2
[5]; 7 Days after drug treatment
  Change in mouse weight: 99.9 ±4.1
[5]; 9 Days after drug treatment
  Change in mouse weight: 99.8 ±4.9
[5]; 11 Days after drug treatment
  Change in mouse weight: 98.6 ±3.5
[5]; 14 Days after drug treatment
  Change in mouse weight: 99.7 ±4.5
[5]; 16 Days after drug treatment
  Change in mouse weight: 98.5 ±6.0
[5]; 18 Days after drug treatment
  Change in mouse weight: 100.4 ±5.5
[5]; 21 Days after drug treatment
  Change in mouse weight: 102.4 ±7.0
[5]
  difference in body weight according to the administration of the drugs: almost no difference in body weight
[6]
  cell viability: decreases the cell viability
[7]
  cell viability: decreases the cell viability
[8]
  cell viability: decreases the cell viability
[9]
  cell viability: decreases the cell viability

## C/C=C(/C)C(=O)O[C@@H]1C[C@H](C)[C@H]2CC(=O)C(C)=C2C[C@@H]1C(C)(C)OC(C)=O [Torilin, torilin, reference compound]
[2]; [10]
  Tumor size increase (Vt−V0): 0.0±0.0
[2]; [11]
  Tumor size increase (Vt−V0): 13.2±13.2
[2]; [12]
  Inhibition rate (tumor size increase): 2.9%
[2]; [13]
  Tumor size increase (Vt−V0): 19.91±0.4
[2]; [14]
  Inhibition rate (tumor size increase): 4.8%
[2]; [15]
  Tumor size increase (Vt−V0): 28.9±12.5
[2]; [16]
  Inhibition rate (tumor size increase): 14.7%
[2]; [17]
  Tumor size increase (Vt−V0): 38.0±8.1
[2]; [18]
  Inhibition rate (tumor size increase): 17.0%
[2]; [19]
  Tumor size increase (Vt−V0): 75.1±10.7
[2]; [20]
  Inhibition rate (tumor size increase): 14.6%
[2]; [21]
  Tumor size increase (Vt−V0): 127.0±25.8
[2]; [22]
  Inhibition rate (tumor size increase): 15.6%
[2]; [23]
  Tumor size increase (Vt−V0): 210.5±44.8
[2]; [24]
  Inhibition rate (tumor size increase): 19.9%
[2]; [25]
  Tumor size increase (Vt−V0): 394.8±93.5
[2]; [26]
  Inhibition rate (tumor size increase): 22.9%
[2]; [27]
  Tumor size increase (Vt−V0): 525.2±99.1
[2]; [28]
  Inhibition rate (tumor size increase): 22.7%
[2]; [29]
  Tumor weight at Day 23: 0.97 ± 0.183 g
  Tumor weight reduction rate compared to control group: 28.6%
[2]; [30]
  Tumor size increase (Vt−V0): 695.0±110.6
[2]; [31]
  Inhibition rate (tumor size increase): 27.0%
[2]; intraperitoneal
  tumor size compared to the control group: statistically significantly smaller
[5]; 0 Day after drug treatment
  Change in mouse weight: 100.0 ±0.0
[5]; 2 Days after drug treatment
  Change in mouse weight: 100.5 ±1.8
[5]; 5 Days after drug treatment
  Change in mouse weight: 101.4 ±2.7
[5]; 7 Days after drug treatment
  Change in mouse weight: 98.4 ±2.7
[5]; 9 Days after drug treatment
  Change in mouse weight: 98.4 ±2.8
[5]; 11 Days after drug treatment
  Change in mouse weight: 98.8 ±3.2
[5]; 14 Days after drug treatment
  Change in mouse weight: 98.2 ±4.3
[5]; 16 Days after drug treatment
  Change in mouse weight: 98.6 ±4.9
[5]; 18 Days after drug treatment
  Change in mouse weight: 100.0 ±5.3
[5]; 21 Days after drug treatment
  Change in mouse weight: 101.8 ±7.3
[5]
  difference in body weight according to the administration of the drugs: almost no difference in body weight
